Measurements as given in patent US8653138B2, “Calcium salts of compounds as anti-inflammatory, immunomodulatory and anti-proliferatory agents” (4SC MG, priority 2010, dated 2014).
Values after ≈ are worked out from the molar mass of the structure shown. Counter-ions that a name gives are not always drawn.

What was measured:
[1] = Aqueous solubility (OECD Guideline 105); assay type: physicochemical; conditions: water, 24 h at 23° C., HPLC-UV
Protocol: Aqueous solubilities of Vidofludimus free acid (2-(3-Fluoro-3′-methoxybiphenyl-4-ylcarbamoyl)-cyclopent-1-enecarboxylic acid), its potassium salt and its Calcium salt were examined. The principle of the method was based on the OECD Guideline for the testing of chemicals, 105 “Water Solubility”. 2 mg of the experimental compounds were weighed into Eppendorf vials of 1.5 ml. Subsequently, water was added to arrive at a concentration of 5 mg/ml. After preparation of the solubility samples they were incubated for 24 h at 23° C. under continuous shaking. Then the samples were centrifuged to separate the precipitate from the dissolved compound. The supernatants were transferred into labelled HPLC vials for quantification by HPLC-UV. Finally, these HPLC samples were analysed on the HPLC-UV System and their contents were calculated from the calibration curves, The concentration of compound in the supernatant equals its solubility in water. The following aqueous solubilities were found for Vidofludimus free acid and its potassium-and calcium salt: […]

[2] = Dynamic vapor sorption (DVS); assay type: physicochemical
From the text: DVS (SMS): Surface Measurement Systems Ltd. DVS-1 water vapour sorption analyzer. The sample is placed on a platinum sample pan and allowed to equilibrate at a given relative humidity (r.h.), usually 50% r.h. Then, a pre-defined humidity program was started with a scanning rate of 5% r.h. change per hour. First step: from 50% r.h. to 0% r.h, (in case of a possibly hydrate as starting material 50 to 95% r.h.), second step: from 0% to 95% r.h. (in case of a possibly hydrate as starting material 95 to 0% r.h.)

[3] = target: T1, recombinant human DHODH (Homo sapiens, UniProt Q02127); test: Inhibition assay of DHODH activity, human enzyme; assay type: biochemical; conditions: class symbol (head prints μM, key in nM)
T1 construct: provided by Prof; M. Löffler, Marburg, Germany (gift, not a commercial vendor)
Protocol: The standard assay mixture contained 50 μM decyclo ubichinone, 100 μM dihydroorotate, 60 μM 2,6-dichloroindophenol, as well as 20 mU DHODH. The volume activity of the recombinant enzyme used was 30 U/ml. Measurements were conducted in 50 mM TrisHCl (150 mM KCl, 0.1% Triton X-100, pH 8.0) at 30° C. in a final volume of 1 ml. The components were mixed, and the reaction was started by adding dihydroorotate. The course of reaction was followed by spectrophotometrically measuring the decrease in absorption at 600 nm for 2 min.
Inhibitory studies were conducted in a standard assay with additional variable amounts of inhibitor.
These investigations were carried out with recombinant human as well as with recombinant murine DHODH provided by Prof. M. Löffler, Marburg, Germany [M. Löffler, Chem. Biol. Interact.

T1 sequence (Q02127 whole entry): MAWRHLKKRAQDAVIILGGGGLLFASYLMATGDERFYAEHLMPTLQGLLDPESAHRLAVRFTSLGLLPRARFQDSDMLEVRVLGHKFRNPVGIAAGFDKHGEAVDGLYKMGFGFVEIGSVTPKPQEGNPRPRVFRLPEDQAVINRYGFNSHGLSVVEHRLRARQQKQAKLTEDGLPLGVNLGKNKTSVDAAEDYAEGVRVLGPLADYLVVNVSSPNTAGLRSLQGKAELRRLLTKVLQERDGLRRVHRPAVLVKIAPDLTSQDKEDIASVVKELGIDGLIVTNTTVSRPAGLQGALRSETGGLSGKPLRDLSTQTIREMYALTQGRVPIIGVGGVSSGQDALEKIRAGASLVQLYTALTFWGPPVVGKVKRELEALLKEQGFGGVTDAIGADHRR

SMILES | Solubility [1] [µg/mL] | IC50 [3] [µM] | other results
COc1cccc(-c2ccc(NC(=O)C3=C(C(=O)O)CCC3)c(F)c2)c1 [Calcium salt, calcium salt of 2-(3-Fluoro-3′-methoxy-biphenyl-4-ylcarbamoyl)-cyclopent-1-enecarboxylic acid] | 16.2 |  | water uptake ([2]; at 95% r.h. (not reversible)): 0.4%; water uptake ([2]; at about 85% r.h., after desolvation): 0.3%
COc1cccc(-c2ccc(NC(=O)C3=C(C(=O)O)CCC3)c(F)c2)c1 [Compound 26, 2-((3-fluoro-3′-methoxy-[1,1′-biphenyl]-4-yl)carbamoyl)cyclopent-1-enecarboxylic acid] |  |  | Solubility ([1]; listed as Vidofludimus free acid): 9.5 µg/mL (≈ 26.7 µM)
O=C(O)C1=C(C(=O)Nc2ccc(OCc3ccccc3)c(Cl)c2)CCC1 [Compound 72] |  | < 0.8 | 
O=C(O)C1=C(C(=O)Nc2ccc(OCc3ccccc3F)c(Cl)c2)CCC1 [Compound 74, 2-((3-chloro-4-((2-fluorobenzyl)oxy)phenyl)carbamoyl)cyclopent-1-enecarboxylic acid] |  | < 0.8 | 
COc1ccccc1-c1ccc(OC(=O)C2=C(C(=O)O)CCC2)c(F)c1 [Compound 76] |  | < 0.8 | 
COc1cccc(-c2ccc(NC(=O)C3=C(C(=O)O)CCC3)c(F)c2)c1 [Potassium salt] | 4700 |  | 
